Measurements reported in the kinase profiling compilation of Christmann-Franck et al. (2016).

What was measured:
Assay in all cases: KINOMEscan competition binding
Details in all cases: compound 2.0 µM
[1] = target: DYRK1B (human) (UniProt Q9Y463)
[2] = target: PRKD3 (human) (UniProt O94806)
[3] = target: PI4KB (human) (UniProt Q9UBF8)
[4] = target: CDC2L2 (human) (UniProt Q9UQ88)
[5] = target: CSK (human) (UniProt P41240)
[6] = target: PLK1 (human) (UniProt P53350)
[7] = target: MAP3K11 (human) (UniProt Q16584)
[8] = target: MAP3K12 (human) (UniProt Q12852)
[9] = target: KIT (human) (UniProt P10721)
[10] = target: NEK1 (human) (UniProt Q96PY6)
[11] = system: PIK3CA (human), P42336 [I800L]
Sequence of PIK3CA (human), P42336 [I800L] (P42336 whole entry I800L, looked up): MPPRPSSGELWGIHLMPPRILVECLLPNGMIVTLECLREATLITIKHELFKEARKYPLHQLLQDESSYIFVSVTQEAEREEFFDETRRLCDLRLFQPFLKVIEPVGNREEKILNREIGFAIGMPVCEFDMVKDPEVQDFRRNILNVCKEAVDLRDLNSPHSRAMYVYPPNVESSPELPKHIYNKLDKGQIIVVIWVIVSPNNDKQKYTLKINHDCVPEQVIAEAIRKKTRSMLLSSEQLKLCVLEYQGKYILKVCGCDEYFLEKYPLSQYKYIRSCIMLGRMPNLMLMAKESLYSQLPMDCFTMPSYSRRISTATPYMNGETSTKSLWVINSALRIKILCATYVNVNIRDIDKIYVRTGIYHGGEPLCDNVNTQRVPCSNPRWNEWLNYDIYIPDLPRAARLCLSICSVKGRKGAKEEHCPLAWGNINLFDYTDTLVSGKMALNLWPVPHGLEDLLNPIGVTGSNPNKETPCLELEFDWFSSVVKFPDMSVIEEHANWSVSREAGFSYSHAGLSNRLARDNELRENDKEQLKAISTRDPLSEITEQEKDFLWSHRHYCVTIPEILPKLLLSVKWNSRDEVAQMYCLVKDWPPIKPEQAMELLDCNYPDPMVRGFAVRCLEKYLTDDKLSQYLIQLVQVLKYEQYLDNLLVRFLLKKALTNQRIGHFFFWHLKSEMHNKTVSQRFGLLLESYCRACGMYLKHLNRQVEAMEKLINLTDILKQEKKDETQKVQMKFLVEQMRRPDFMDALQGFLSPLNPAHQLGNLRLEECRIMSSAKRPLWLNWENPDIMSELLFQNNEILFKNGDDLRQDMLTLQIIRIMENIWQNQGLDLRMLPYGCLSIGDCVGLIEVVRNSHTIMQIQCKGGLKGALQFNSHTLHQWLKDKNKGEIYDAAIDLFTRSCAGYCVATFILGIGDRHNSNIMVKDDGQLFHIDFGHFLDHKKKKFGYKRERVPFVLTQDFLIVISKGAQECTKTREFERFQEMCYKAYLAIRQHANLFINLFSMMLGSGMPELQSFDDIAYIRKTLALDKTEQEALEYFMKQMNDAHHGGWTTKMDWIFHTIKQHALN

[12] = target: CDKL5 (human) (UniProt O76039)
[13] = target: MERTK (human) (UniProt Q12866)
[14] = target: CSNK2A1 (human) (UniProt P68400)
Sequence of CSNK2A1 (human) (P68400 whole entry, looked up): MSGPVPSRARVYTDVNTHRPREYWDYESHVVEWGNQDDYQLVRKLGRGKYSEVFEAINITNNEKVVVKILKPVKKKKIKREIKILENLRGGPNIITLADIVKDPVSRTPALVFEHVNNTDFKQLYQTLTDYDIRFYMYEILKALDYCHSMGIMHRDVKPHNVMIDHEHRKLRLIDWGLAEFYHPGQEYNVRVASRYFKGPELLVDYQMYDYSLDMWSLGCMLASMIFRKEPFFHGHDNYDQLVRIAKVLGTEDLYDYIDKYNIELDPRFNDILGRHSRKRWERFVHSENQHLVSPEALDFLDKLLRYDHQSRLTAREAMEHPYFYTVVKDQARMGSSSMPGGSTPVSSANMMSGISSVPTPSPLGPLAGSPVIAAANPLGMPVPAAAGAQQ

[15] = target: LTK (human) (UniProt P29376)
[16] = target: STK3 (human) (UniProt Q13188)
Sequence of STK3 (human) (Q13188 whole entry, looked up): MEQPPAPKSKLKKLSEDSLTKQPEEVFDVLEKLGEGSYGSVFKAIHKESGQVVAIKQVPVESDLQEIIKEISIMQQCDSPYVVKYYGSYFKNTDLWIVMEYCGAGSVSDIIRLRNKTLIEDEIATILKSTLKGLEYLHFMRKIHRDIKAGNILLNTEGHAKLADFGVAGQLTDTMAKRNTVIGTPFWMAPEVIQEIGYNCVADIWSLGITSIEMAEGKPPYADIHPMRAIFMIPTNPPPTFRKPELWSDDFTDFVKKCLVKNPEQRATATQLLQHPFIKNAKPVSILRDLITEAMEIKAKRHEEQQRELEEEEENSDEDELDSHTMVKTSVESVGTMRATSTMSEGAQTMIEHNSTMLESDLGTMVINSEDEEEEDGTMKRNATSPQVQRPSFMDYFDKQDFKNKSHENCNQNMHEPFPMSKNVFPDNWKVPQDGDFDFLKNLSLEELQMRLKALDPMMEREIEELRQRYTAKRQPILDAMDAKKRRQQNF

[17] = target: BMP2K (human) (UniProt Q9NSY1)
Sequence of BMP2K (human) (Q9NSY1 whole entry, looked up): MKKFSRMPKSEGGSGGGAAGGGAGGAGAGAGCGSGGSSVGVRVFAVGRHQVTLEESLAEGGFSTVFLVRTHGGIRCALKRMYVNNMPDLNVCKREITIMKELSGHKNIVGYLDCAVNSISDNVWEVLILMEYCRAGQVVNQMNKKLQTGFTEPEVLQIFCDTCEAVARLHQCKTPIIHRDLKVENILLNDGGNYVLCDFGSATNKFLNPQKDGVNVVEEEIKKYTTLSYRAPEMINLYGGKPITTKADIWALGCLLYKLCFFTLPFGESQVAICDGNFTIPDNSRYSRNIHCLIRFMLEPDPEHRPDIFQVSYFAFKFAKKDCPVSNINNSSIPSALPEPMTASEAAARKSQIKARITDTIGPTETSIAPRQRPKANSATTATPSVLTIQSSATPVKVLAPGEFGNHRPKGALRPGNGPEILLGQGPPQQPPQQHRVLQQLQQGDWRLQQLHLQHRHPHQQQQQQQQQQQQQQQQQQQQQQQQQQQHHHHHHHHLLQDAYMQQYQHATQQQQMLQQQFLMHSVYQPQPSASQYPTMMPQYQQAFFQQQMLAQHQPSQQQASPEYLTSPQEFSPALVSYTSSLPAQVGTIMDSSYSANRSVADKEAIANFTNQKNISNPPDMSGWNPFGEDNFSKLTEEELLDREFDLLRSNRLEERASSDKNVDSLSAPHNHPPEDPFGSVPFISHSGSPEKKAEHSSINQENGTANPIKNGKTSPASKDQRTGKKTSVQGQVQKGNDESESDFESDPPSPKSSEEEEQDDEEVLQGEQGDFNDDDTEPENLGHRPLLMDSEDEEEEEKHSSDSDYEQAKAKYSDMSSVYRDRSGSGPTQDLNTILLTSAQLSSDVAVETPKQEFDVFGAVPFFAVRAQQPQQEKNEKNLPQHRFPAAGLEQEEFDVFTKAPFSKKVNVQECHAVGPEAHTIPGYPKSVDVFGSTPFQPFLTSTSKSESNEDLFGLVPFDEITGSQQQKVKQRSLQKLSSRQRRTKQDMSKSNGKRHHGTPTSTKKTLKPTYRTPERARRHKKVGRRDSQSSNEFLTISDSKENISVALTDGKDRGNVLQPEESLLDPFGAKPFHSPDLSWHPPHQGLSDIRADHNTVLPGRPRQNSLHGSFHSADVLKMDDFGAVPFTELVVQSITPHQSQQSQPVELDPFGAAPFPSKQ

[18] = target: CHEK1 (human) (UniProt O14757)
[19] = target: MAP3K7 (human) (UniProt O43318)
[20] = target: SRMS (human) (UniProt Q9H3Y6)
[21] = target: DYRK2 (human) (UniProt Q92630)
[22] = target: AKT3 (human) (UniProt Q9Y243)
[23] = target: MAP2K1 (human) (UniProt Q02750)
[24] = target: RPS6KA6 KD1 (human) (UniProt Q9UK32)
[25] = target: PIK3CA (human) (UniProt P42336)
Sequence of PIK3CA (human) (P42336 whole entry, looked up): as the sequence (P42336 whole entry I800L, looked up) above, with L800I counted along it

[26] = target: TESK1 (human) (UniProt Q15569)
[27] = target: PIP4K2B (human) (UniProt P78356)
[28] = target: RPS6KA5 KD2 (human) (UniProt O75582)
[29] = target: LIMK1 (human) (UniProt P53667)
Sequence of LIMK1 (human) (P53667 whole entry, looked up): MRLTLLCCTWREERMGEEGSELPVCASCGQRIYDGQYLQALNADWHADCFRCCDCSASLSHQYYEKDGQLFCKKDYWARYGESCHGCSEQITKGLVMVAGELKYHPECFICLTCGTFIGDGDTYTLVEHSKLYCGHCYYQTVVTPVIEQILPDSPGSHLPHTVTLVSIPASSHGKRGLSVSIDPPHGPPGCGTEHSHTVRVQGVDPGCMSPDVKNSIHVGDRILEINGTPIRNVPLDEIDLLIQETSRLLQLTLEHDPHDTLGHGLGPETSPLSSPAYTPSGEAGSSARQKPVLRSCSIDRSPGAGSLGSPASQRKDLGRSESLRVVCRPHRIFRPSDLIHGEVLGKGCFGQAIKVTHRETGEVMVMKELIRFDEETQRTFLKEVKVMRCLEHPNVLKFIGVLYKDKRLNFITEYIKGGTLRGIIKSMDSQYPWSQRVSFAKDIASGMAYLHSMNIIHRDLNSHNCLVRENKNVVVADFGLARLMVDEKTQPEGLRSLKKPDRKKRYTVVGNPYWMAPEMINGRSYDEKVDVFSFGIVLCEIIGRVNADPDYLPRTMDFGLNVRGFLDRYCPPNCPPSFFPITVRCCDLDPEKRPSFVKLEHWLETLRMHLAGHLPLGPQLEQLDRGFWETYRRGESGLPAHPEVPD

[30] = system: PIK3CA (human), P42336 [C420R]
Sequence of PIK3CA (human), P42336 [C420R] (P42336 whole entry C420R, looked up): as the sequence (P42336 whole entry I800L, looked up) above, with C420R, L800I counted along it

[31] = target: MAP2K5 (human) (UniProt Q13163)
[32] = target: PIK3CD (human) (UniProt O00329)
[33] = target: CDK4 CCND1 (human) (UniProt P11802+P24385)
Sequence of CDK4 CCND1 (human) (P11802 whole entry, looked up): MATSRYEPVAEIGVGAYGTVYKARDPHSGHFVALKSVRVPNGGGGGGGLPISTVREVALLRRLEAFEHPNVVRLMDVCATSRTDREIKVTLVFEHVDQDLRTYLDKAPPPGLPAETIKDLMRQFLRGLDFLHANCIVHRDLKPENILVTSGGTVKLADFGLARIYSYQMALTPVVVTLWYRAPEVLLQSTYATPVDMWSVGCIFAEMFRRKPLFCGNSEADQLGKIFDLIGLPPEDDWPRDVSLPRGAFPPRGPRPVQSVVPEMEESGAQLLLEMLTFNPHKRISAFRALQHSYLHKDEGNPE
Sequence of CDK4 CCND1 (human) (P24385 whole entry, looked up): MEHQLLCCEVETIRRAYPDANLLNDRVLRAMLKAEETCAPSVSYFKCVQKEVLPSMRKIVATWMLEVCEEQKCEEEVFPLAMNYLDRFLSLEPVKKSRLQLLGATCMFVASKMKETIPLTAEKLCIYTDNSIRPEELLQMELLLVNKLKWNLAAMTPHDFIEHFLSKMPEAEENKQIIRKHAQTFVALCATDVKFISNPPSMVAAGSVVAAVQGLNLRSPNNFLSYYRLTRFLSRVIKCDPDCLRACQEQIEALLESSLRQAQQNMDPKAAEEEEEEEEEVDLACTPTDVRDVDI

[34] = system: EGFR (human), P00533 [G719C]
[35] = target: LRRK2 (human) (UniProt Q5S007)
[36] = target: ACVR1 (human) (UniProt Q04771)
[37] = target: MAP3K5 (human) (UniProt Q99683)
[38] = target: DMPK (human) (UniProt Q09013)
[39] = target: CDK15 (human) (UniProt Q96Q40)
[40] = target: CDK19 (human) (UniProt Q9BWU1)
[41] = target: TAOK3 (human) (UniProt Q9H2K8)
[42] = target: CIT (human) (UniProt O14578)
[43] = target: AKT1 (human) (UniProt P31749)

Sequence of CSK (human) (P41240 whole entry, looked up): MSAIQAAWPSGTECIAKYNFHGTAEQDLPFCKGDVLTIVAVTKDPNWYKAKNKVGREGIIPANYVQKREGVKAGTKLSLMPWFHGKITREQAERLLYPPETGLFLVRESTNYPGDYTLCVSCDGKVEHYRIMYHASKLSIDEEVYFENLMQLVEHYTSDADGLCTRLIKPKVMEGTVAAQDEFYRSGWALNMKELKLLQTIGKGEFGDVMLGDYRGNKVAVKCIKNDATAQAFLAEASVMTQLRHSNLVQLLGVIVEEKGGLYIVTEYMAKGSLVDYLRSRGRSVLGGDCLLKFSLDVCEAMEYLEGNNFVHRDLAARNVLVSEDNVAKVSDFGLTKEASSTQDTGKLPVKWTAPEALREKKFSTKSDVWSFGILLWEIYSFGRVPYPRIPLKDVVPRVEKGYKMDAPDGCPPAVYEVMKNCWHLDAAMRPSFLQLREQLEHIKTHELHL

SMILES: N#Cc1ccc2ncnc(NCCc3ccc4ccccc4c3)c2c1
- kinase still bound, per cent of control [1]: 96%
- kinase still bound, per cent of control [2]: 99%
- kinase still bound, per cent of control [3]: 95%
- kinase still bound, per cent of control [4]: 100%
- kinase still bound, per cent of control [5]: 100%
- kinase still bound, per cent of control [6]: 88%
- kinase still bound, per cent of control [7]: 89%
- kinase still bound, per cent of control [8]: 100%
- kinase still bound, per cent of control [9]: 97%
- kinase still bound, per cent of control [10]: 100%
- kinase still bound, per cent of control [11]: 85%
- kinase still bound, per cent of control [12]: 100%
- kinase still bound, per cent of control [13]: 93%
- kinase still bound, per cent of control [14]: 92%
- kinase still bound, per cent of control [15]: 99%
- kinase still bound, per cent of control [16]: 74%
- kinase still bound, per cent of control [17]: 68%
- kinase still bound, per cent of control [18]: 97%
- kinase still bound, per cent of control [19]: 78%
- kinase still bound, per cent of control [20]: 84%
- kinase still bound, per cent of control [21]: 85%
- kinase still bound, per cent of control [22]: 98%
- kinase still bound, per cent of control [23]: 96%
- kinase still bound, per cent of control [24]: 100%
- kinase still bound, per cent of control [25]: 78%
- kinase still bound, per cent of control [26]: 100%
- kinase still bound, per cent of control [27]: 100%
- kinase still bound, per cent of control [28]: 100%
- kinase still bound, per cent of control [29]: 100%
- kinase still bound, per cent of control [30]: 100%
- kinase still bound, per cent of control [31]: 85%
- kinase still bound, per cent of control [32]: 100%
- kinase still bound, per cent of control [33]: 100%
- kinase still bound, per cent of control [34]: 96%
- kinase still bound, per cent of control [35]: 85%
- kinase still bound, per cent of control [36]: 100%
- kinase still bound, per cent of control [37]: 95%
- kinase still bound, per cent of control [38]: 100%
- kinase still bound, per cent of control [39]: 100%
- kinase still bound, per cent of control [40]: 0.8%
- kinase still bound, per cent of control [41]: 79%
- kinase still bound, per cent of control [42]: 91%
- kinase still bound, per cent of control [43]: 81%
